Tested on: snake venom phosphodi-esterase (SVPD)
Conditions: SVPD 0.0005 U/mL, 50 mM Tris-HCl pH 7.5, 8 mM MgCl2, 37° C., oligomer 5 μm; full-length oligomer by IP-HPLC/MS
Experimental: [drawing 26] • The nuclease stability was determined after treatment with snake venom phosphodi-esterase (SVPD). Each of the test oligomers was incubated with SVPD (0.0005 U/mL) in 50 mM Tris-HCl, pH 7.5, 8 mM MgCl2 at 37° C. to a final concentration of 5 μm in a total volume of 400 μL. At each time point, a 50 μL aliquot and quenching buffer (8 M Urea, 50 mM EDTA) was placed in a 500 μL, microfuge tube. Kinetic time points were taken at 0, 0.5, 1, 1.5, 2, and 4 minutes for 7157; 0, 0.5, 1, 1.5, 2, 2.5, 3 and 5 minutes for 440140. The samples were then cooled on ice and spun in a Microfuge to bring the entire volume to the bottom of the tube. Samples were kept frozen until ready for LC/MS analysis.
For each sample the oligomer and metabolites were separated and analyzed using IP-HPLC/MS techniques. Samples were diluted to a concentration of 1 μM with quenching buffer in a microsampling vial and 50 μL of the sample was injected into the IP-HPLC column (YMC ODS-AQ™ 1.0 mm×150 mm, 3 μm, 120 A°). The loading buffer used was 25 mM TBAA (tributyl ammonium acetate) in 25% acetonitrile. […] The percentages of the full-length oligomers were calculated by integration using Caesar v. 6 software (Senetec Software, New Jersey) and the oligonucleotide half-lives were calculated using GraphPad Prism 4.

TTTTTTTTTTTT [ISIS 7157]
Half Life: 24 s

Source: patent US8546556B2, “Carbocyclic alpha-L-bicyclic nucleic acid analogs” (Isis Pharmaceuticals, Inc, priority 2007, dated 2013)
